Measurements from patent US4233309A, “Novel 1-substituted-3-acylpyrrole derivatives, platelet aggregation inhibitors containing them, as active ingredients, and processes for production of said derivatives” (Teijin Limited, priority 1977, dated 1980).
Values after ≈ are worked out from the molar mass of the structure shown. Where two headings read alike, the source gives them in different places.

Experiments:
[1] = tested on: platelet aggregation (guinea pig PRP, extra vivo); assay: Inhibitory effect of compounds on platelet aggregation in extra vivo (Table 4); design: species or system Hartley-strain guinea pigs; conditions: Cavia porcellus, 10 mg/kg SC, 1 h after administration
ICR male mice = assay: Acute toxicity (Table 6); type: in vivo; conditions: 10 days
Protocol: (§1) ICR male mice with a body weight of 24 to 27 g (5 to 6 per group) were used. Each test compound was dissolved in propylene glycol in various concentrations, and administered orally (in a volume of 0.1 to 0.05 ml/10 g), subcutaneously (in a volume of 0.1 to 0.05 ml/10 g), or intraperitoneally (in a volume of 0.05 ml/10 g) to the mice. […] The LD50 (50% lethal dose) of each test compound was determined by the Litchfield-Wilcoxon method.
(§2) The denominator indicates the number of mice used, and the numerator, the number of dead mice.

Acute toxicity (Table 6) = type: in vivo; conditions: mouse, in vivo, mice, Litchfield-Wilcoxon, read-out: LD50 (50% lethal dose)
Protocol: as §1, §2

[2] = tested on: platelet aggregation (platelet-rich plasmas (PRP) of guinea pigs); assay: Activity of inhibiting platelet aggregation in vitro, guinea pig PRP, sodium arachidonate as aggregating agent (Table 1); type: cell-based, Hartley-strain male guinea pigs; conditions: Cavia porcellus, sodium arachidonate 0.03 mM final, 37° C., final concentration, read-out: IC50 (minimum concentration of drug which showed a percent inhibition of more than 50%)
Protocol: Some 1-substituted-3-acylpyrrole derivatives and other drugs were tested for platelet aggregation inhibiting activities in vitro using platelet-rich plasmas (PRP) of man and guinea pigs. The results are shown as minimum concentration of drugs which inhibit more than 50% of platelet aggregation induced by several aggregating agents.
In experiments with PRP of guinea pigs, sodium arachidonate (final concentration 0.03 mM) was used as an aggregating agent. In experiments with human PRP, sodium arachidonate (final concentration 0.1 mM), collagan suspension (final concentration 10 μg/ml), epinephrine solution (final concentration 20 μg/ml; for secondary aggregation), an epinephrine solution (final concentration 2 μg/ml; for primary aggregation) and ADP (final concentration 5 μM) were used as aggregating agents.
In an experiment with guinea pig PRP, citrated blood (containing 0.38% sodium citrate as a final concentration) was withdrawn by cardiac puncture from Hartley-strain male guinea pigs having a body weight of 350 to 600 g. The citrated blood was centrifuged at 1,000 rpm for 10 minutes at room temperature, and the supernatant platelet suspension (PRP) was separated.
The PRP was stored at room temperature, and used as soon as possible. Those which had been stored for more than 4 hours after preparation were not used.
For each test, a drug is dissolved in dimethylsulfoxide to a concentration of 10 mg/ml, and diluted with physiological saline to form 1 ml each of solutions having a concentration of 2500 μg/ml, 1000 μg/ml, 750 μg/ml, 500 μg/ml, 250 μg/ml and 100 μg/ml. A compound having a free carboxylic acid as a residue such as indomethacine and Ibprofen was dissolved in 0.1 M NaHCO3 to form a sodium salt solution having a concentration of 10 mg/ml. Then, the solution was diluted with physiological saline in the same way as above to form a test drug solution.
Arachidonic acid (99% pure, a product of Sigma Co., Ltd.) was dissolved in 0.1 M NaHCO3, and a 3.3 mM solution of sodium arachidonate was prepared. The solution was diluted with physiological saline to a concentration of 1 mM and used in the experiments. The 3.3 mM solution was stored in a refrigerator as a stock solution, and the 1 mM solution was newly prepared from the stock solution every time it was used.
Physiological saline (50 μl) and 50 μl of the aggregating agent solution were added to 400 μl of PRP which had been pre-warmed and stirred at 37° C. in a quvett set in a holder of an aggregometer. Platelet aggregation was thus initiated, and the change of light transmittance through a stirred platelet suspension was recorded for 3 minutes by a recorder joined to the aggregometer. An increase in transmittance after 3 minutes (T0) was used as a parameter of the rate of platelet aggregation in control experiments.
To 400 μl of PRP in a quvett was added 50 μl of a test drug solution. The mixture was pre-incubated and stirred for 2 minutes at 37° C. Then 50 μl of the aggregating agent was added to drug containing PRP and again aggregation responses were recorded as increases in light transmittance after 3 minutes (T1) in the same way as in (1) above. Percent inhibition was calculated from the formula [formula]
For the above in vitro test for the inhibition of platelet aggregation, reference may be had to H. M. Davis, J. Phyllis, K. Paul and W. Terry: Thromb. Res. 11, 217-226 (1977) and R. E. Anderson and J. G. Foulks: Thromb. Haemos. 36, 343-359 (1976).

[3] = tested on: platelet aggregation (guinea pig PRP, extra vivo); assay: Inhibitory effect of compounds on platelet aggregation in extra vivo (Table 4); design: species or system Hartley-strain guinea pigs; conditions: Cavia porcellus, 100 mg/kg PO, 1 h after administration
Protocol: The effect of the compounds shown in Table 4 on platelet aggregation was assessed using guinea pig in extra vivo.
Each of the test compounds was dissolved in propylene glycol so that its concentration became 100 mg/ml (dosage corresponded to 100 mg/kg) and 30 mg/ml (dosage corresponded to 30 mg/kg). The drug solution was administered either orally or subcutaneously to Hartley-strain guinea pigs (3 per group) having a body weight of 300 to 350 g. As a control, propylene glycol was administered. One hour after the administration, citrated blood was taken out by cardiac puncture, and centrifuged to obtain PRP (see Example 67).
In the case of oral administration, the animals had been fasted overnight.
Into a quvett set in a holder of an aggregometer and prewarmed at 37° C. with stirring, was put 450 μl of the above PRP, and then 50 μl of an aggregating agent was added. The aggregation curve was recorded for an additional 3 minutes, and an increase in light transmittance through PRP after 3 minutes (TB) was recorded (see Example 67). As a control, an increase of transmittance of PRP taken from a guinea pig group administered with propylene glycol alone (TA) was recorded in the same way above. The percent inhibitions were calculated in accordance with the following equation. [formula]
As the aggregating agent, sodium arachidonate (a final concentraton of 0.03 mM) and a collagen suspension (a final concentration of 5 μg/ml) were used.
The percent inhibitions in the above table are averages of three guinea pigs. For details of the above extra vivo test about inhibition of platelet aggregation, the literature references described in Example 67 may be referred to.

[4] = collagen 5 μg/ml, read-out: Percent inhibition of platelet aggregation, collagen
[5] = sodium arachidonate 0.03 mM, read-out: Percent inhibition of platelet aggregation, sodium arachidonate

Cc1cc(C(=O)c2ccccc2)c(C)n1CC(C)O (centres unmarked) [Compound 102, 2-(3-benzoyl-2,5-dimethylpyrrol-1-yl)-1-methylethanol]
inhibition at 10 mg/kg [1, 4]: 79% | inhibition at 10 mg/kg [1, 5]: 99% | mortality (dead mice / mice used) (ICR male mice; intraperitoneal, 62.5 mg/kg): 0/5 | mortality (dead mice / mice used) (ICR male mice; intraperitoneal, 125 mg/kg): 4/5 | mortality (dead mice / mice used) (ICR male mice; intraperitoneal, 250 mg/kg): 5/5 | mortality (dead mice / mice used) (ICR male mice; intraperitoneal, 500 mg/kg): 5/5 | mortality (dead mice / mice used) (ICR male mice; peroral, 1000 mg/kg): 0/6 | mortality (dead mice / mice used) (ICR male mice; peroral, 2000 mg/kg): 0/6 | mortality (dead mice / mice used) (ICR male mice; peroral, 3000 mg/kg): 0/6 | mortality (dead mice / mice used) (ICR male mice; peroral, 4000 mg/kg): 1/6 | mortality (dead mice / mice used) (ICR male mice; subcutaneous, 4000 mg/kg): 0/5 | LD50 at 240 h (Acute toxicity (Table 6); ip, intraperitoneal): 110 mg/kg | LD50 at 240 h (Acute toxicity (Table 6); po, peroral): > 4000 mg/kg | LD50 at 240 h (Acute toxicity (Table 6); sc, subcutaneous): > 4000 mg/kg | IC50 [2]: 5 µg/mL (≈ 19.4 µM) | inhibition at 100 mg/kg [3, 4]: 29 to 55% | inhibition at 100 mg/kg [3, 5]: 54 to 89%
